Experimental data as given in article PMC6410164, “Isolation and Structure-Activity Relationship of Subergorgic Acid and Synthesis of Its Derivatives as Antifouling Agent” (Marine Drugs, 2019).
Values after ≈ are worked out from the molar mass of the structure shown. Like-named read-outs stand apart in the source and are kept apart here.

Legend:
barnacle larvae = details: cited from earlier work
[1] = system: naupliar larvae of several barnacles; parameters: method as in PMID 12031437; details: cited from earlier work
B. amphitrite [2] = details: reported by Qi et al. ref 21; cited from earlier work
B. amphitrite [3] = system: B. amphitrite; parameters: method as in PMID 18075899; details: reported by Qi et al. ref 21; cited from earlier work
[4] = Toxicity toward larvae in the settlement assay (LC50); details: Balanus amphitrite (barnacle), cyprid larvae, in vivo, other: immersion of larvae in test solution, B. amphitrite larvae, highest concentration tested 25 μg/mL
Method: The antifouling activity was examined using cyprids of the barnacle B. amphitrite Darwin according to the method reported previously. Briefly, adults of B. amphitrite, collected from the intertidal zone in Hong Kong, were exposed to air for more than 6 h, and were then placed in a container filled with 0.22 µm filtered seawater (FSW) to release nauplii. The collected nauplii were raised to cyprid stage using the method described by Thiyagarajan et al.. Fresh cyprids were used in the test. Larval settlement assays were examined using 24-well polystyrene plates. […] About 15−20 competent larvae were added to each well containing 1 mL of test solution in triplicate, and wells containing only FSW, DMSO, and larvae served as a control. The plates were incubated at 25 °C for 48 h. The effects of the test samples against biofouling were determined by examining the plates under a microscope to count settled, unsettled, and swimming larvae, and where appropriate, potential toxic effects were recorded. The number of settled larvae was expressed as a percentage of the total number of larvae per well. Three replicates of each treatment were performed. A concentration-response curve was then made and a trend line was constructed for each compound.

B. amphitrite [5] = experiment: Larval settlement (antifouling) assay with cyprids of the barnacle B. amphitrite; assay type: in vivo, Balanus amphitrite; details: Amphibalanus amphitrite, 48 h, read-out: EC50 (μg/mL), inhibition of settlement of B. amphitrite
Method: The antifouling activity was examined using cyprids of the barnacle B. amphitrite Darwin according to the method reported previously. Briefly, adults of B. amphitrite, collected from the intertidal zone in Hong Kong, were exposed to air for more than 6 h, and were then placed in a container filled with 0.22 µm filtered seawater (FSW) to release nauplii. The collected nauplii were raised to cyprid stage using the method described by Thiyagarajan et al.. Fresh cyprids were used in the test. Larval settlement assays were examined using 24-well polystyrene plates. The tested samples were first dissolved with small amount of dimethyl sulfoxide (DMSO) and then diluted with FSW to achieve final concentrations at 25.0, 12.5, 6.25, 3.13, 1.57, 0.78, 0.39, 0.19, 0.1, and 0.05 µg/mL. About 15−20 competent larvae were added to each well containing 1 mL of test solution in triplicate, and wells containing only FSW, DMSO, and larvae served as a control. The plates were incubated at 25 °C for 48 h. The effects of the test samples against biofouling were determined by examining the plates under a microscope to count settled, unsettled, and swimming larvae, and where appropriate, potential toxic effects were recorded. The number of settled larvae was expressed as a percentage of the total number of larvae per well. Three replicates of each treatment were performed. A concentration-response curve was then made and a trend line was constructed for each compound. EC50 was calculated as the concentration where 50% of the larval individual was inhibited to settle as compared to the control while LC50 was calculated as the concentration where 50% of the larval population was dead. […] For the purposes of this study, adults of the barnacle B. amphitrite were scraped off from the concrete posts at a pier of Pak Sha Wan, Kowloon, Hong Kong (22°21′45″N, 114°15′35″E), where only limited quantity of B. amphitrite could be collected during the period of our experiment because of the relatively hot weather and artificial disturbing of nearby construction work.

[6] = cyprids, 24-well plates, 25 °C, average of triplicate ± SD, highest concentration 25 μg/mL

Structure (SMILES)	LC50 at 48 h [4]	EC50 (B. amphitrite [5]; [6])	also measured
OCc1cc(O)cc(Cl)c1O [3-chloro-2,5-dihydroxybenzylalcohol]	–	–	EC50, settlement inhibition against barnacle larvae (barnacle larvae): 3.19 to 3.81 µg/mL
O=C1O[C@@H](Cc2ccccc2)C(Cc2ccccc2)=C1Cc1ccccc1 [Maculalactone A]	–	–	EC50 against naupliar larvae of several barnacles [1]: 1.1 to 5.2 µg/mL
CC1CC(=O)C23C(C)C(C(=O)O)=CC2(C)CCC13 (stereo not drawn) [SA, subergorgic acid]	> 25 µg/mL	–	LC50 (B. amphitrite [2]): > 200 µg/mL; EC50, settlement of B. amphitrite (B. amphitrite [3]): 1.2 µg/mL; EC50 (B. amphitrite [5]): 1.25 ± 0.14 µg/mL (≈ 5.03 µM)
Oc1c(Br)cc(Br)cc1Cc1ccc(Br)cc1Br [2,4-dibromo-6-(2,4-dibromobenzyl)phenol]	–	–	EC50 (barnacle larvae; read-out: EC50, settlement inhibition against barnacle larvae): 1260 nM
COC(=O)C1=CC2(C)CCC3C(C)CC(=O)C32C1C (stereo not drawn) [Compound 1]	> 25 µg/mL	3.16 ± 0.18 µg/mL (≈ 12 µM)	–
CC1CC(=O)C23C1CCC2(C)C1OC1(C(=O)O)C3C (stereo not drawn) [Compound 4]	> 25 µg/mL	> 25 µg/mL	–
COC(=O)C1=CC2(C)CCC3C(C)CC(O)C32C1C (stereo not drawn) [Compound 2]	> 25 µg/mL	10 ± 0.13 µg/mL (≈ 37.9 µM)	–
CC1CC(O)C23C(C)C(C(=O)O)=CC2(C)CCC13 (stereo not drawn) [Compound 3]	> 25 µg/mL	> 25 µg/mL	–
